# Reference: patent US12286632B2, “Rationally-designed synthetic peptide shuttle agents for delivering polypeptide cargos from an extracellular space to the cytosol and/or nucleus of a target eukaryotic cell, uses thereof, methods and kits relating to same” (Feldan Bio Inc., priority 2016, dated 2025)
# Key:
# HeLa cells = assay: Plasmid DNA (pEGFP-C1) transfection by peptides (% cells with GFP signal, cell viability); conditions: DNA transfection in HeLa cells using peptides; pEGFP-C1 plasmid
# THP-1 cells = assay: HOXB4-WT transduction: target gene mRNA by real-time PCR (Fold over control) and total RNA (ng/μL) as marker for cell viability; format: cell-based, human; conditions: for Total RNA in ng/μL (mean ± St. Dev): THP-1, serum
# Protocol: Control and treated cells are transferred to separate sterile 1.5-mL tubes and centrifuged for 5 minutes at 300g. The cell pellets are resuspended in appropriate buffer to lyse the cells. RNAase-free 70% ethanol is then added followed by mixing by pipetting. The lysates are transferred to an RNeasy™ Mini spin column and centrifuged 30 seconds at 13000 RPM. After several washes with appropriate buffers and centrifugation steps, the eluates are collected in sterile 1.5-mL tubes on ice, and the RNA quantity in each tube is then quantified with a spectrophotometer. For DNase treatment, 2 μg of RNA is diluted in 15 μL of RNase-free water. 1.75 μL of 10X DNase buffer and 0.75 μL of DNase is then added, followed by incubation at 37° C. for 15 minutes. For reverse transcriptase treatment, 0.88 μL of EDTA […] is added, followed by incubation at 75° C. for 5 minutes. In a PCR tube, […] of DNase-treated RNA is mixed with 4 μL of iScript™ Reverse transcription Supermix (5X) and […] of nuclease-free water. The mix is incubated in a PCR machine with the following program: 5 min at 25° C., 30 min at 42° C. and 5 min at 85° C. Newly synthesized cDNA is transferred in sterile 1.5-mL tubes and diluted in 2 μL of nuclease-free water. 18 μL per well of a qPCR machine (CFX-96™) mix is then added in a PCR plate for analysis.
# Briefly, THP-1 cells were plated at 30 000 cells/well one day before transduction. HOXB4-WT recombinant protein ([…]; Example 14.1) was co-incubated with different concentrations of His-CM18-PTD4 ([…]) and then exposed to THP-1 cells for 2.5 hours in the presence of serum. The cells were subjected to real time-PCR analysis as described in Example 14.2 to measure the mRNA levels of a target gene as a marker for HOXB4 activity, which was then normalized to the target gene mRNA levels detected in the negative control cells (no treatment), to obtain a “Fold over control” value. Total RNA levels (ng/μL) were also measured as a marker for cell viability.
# Briefly, THP-1 cells were plated at 30 000 cells/well one day before the first time course experiment. HOXB4-WT recombinant protein (1.5 μM; Example 14.1) was co-incubated with His-CM18-PTD4 (0.8 μM) and then exposed to THP-1 cells for 0, 2.5, 4, 24 or 48 hours in presence of serum. The cells were subjected to real time-PCR analysis as described in Example 14.2 to measure mRNA levels of a target gene as a marker for HOXB4 activity, which was then normalized to the target gene mRNA levels detected in the negative control cells (no treatment), to obtain a “Fold over control” value. Total RNA levels (ng/μL) were also measured as a marker for cell viability.
# Briefly, THP-1 cells were plated at 30 000 cells/well one day before the first time course experiment. HOXB4-WT recombinant protein (0.3 μM; Example 14.1) was co-incubated with His-CM18-PTD4 (0.8 μM) and then exposed to THP-1 cells for 0, 0.5, 1, 2, 2.5, 3 or 4 hours in presence of serum. The cells were subjected to real time-PCR analysis as described in Example 14.2 to measure mRNA levels of a target gene as a marker for HOXB4 activity, which was then normalized to target gene mRNA levels detected in the negative control cells (no treatment), to obtain a “Fold over control” value. Total RNA levels (ng/μL) were also measured as a marker for cell viability.
# Briefly, THP-1 cells were plated at 30 000 cells/well one day before the first time course experiment. HOXB4-WT recombinant protein (1.5 μM; Example 14.1) co-incubated with the shuttle agents His-CM18-PTD4, TAT-KALA, EB1-PTD4, His-C(LLKK)3C-PTD4 and His-CM18-PTD4-His at 0.8 μM, and then exposed to THP-1 cells for 2.5 hours in presence of serum. The cells were subjected to real time-PCR analysis as described in Example 14.2 to measure mRNA levels of a target gene as a marker for HOXB4 activity, which was then normalized to target gene mRNA levels detected in the negative control cells (no treatment), to obtain a “Fold over control” value. […]
# rat parietal cortex = assay: In vivo GFP-NLS delivery by stereotaxic injection, fluorescence microscopy of brain slices; conditions: shuttle 20 μM + GFP-NLS 20 μM, 5 μL injected over 10 min; sacrificed 2 h after surgery
# Protocol: In separate sterile 1.5-mL tubes, shuttle agent His-CM18-PTD4 was diluted in sterile distilled water at room temperature. […] One negative control was included for the experiment, which corresponds to the injection of the GFP-NLS alone.
# Bilateral injections were performed in the parietal cortex of three rats. In the left parietal cortex (ipsilateral), a mix composed of the shuttle agent (20 μM) and the GFP-NLS (20 μM) was injected, and in the right parietal cortex (contralateral), only the GFP-NLS (20 μM) was injected as a negative control. For surgical procedures, […] were anesthetized with isoflurane. Then the animal was placed in a stereotaxic frame, and the skull surface was exposed. Two holes were drilled at the appropriate sites to allow bilateral infusion of the shuttle/cargo mix or GFP-NLS alone (20 μM) with 5-μL Hamilton syringe. Antero-posterior (AP), lateral (L), and dorso-ventral (DV) coordinates were taken relative to the bregma: (a) AP+0.48 mm, L±3 mm, V-5 mm; (b) AP-b 2 mm, L±1.3 mm, V-1.5 mm; (c) AP-2.6 mm, L 1.5 mm, V-1.5 mm. The infused volume of the shuttle/cargo mix or cargo alone was 5 μL per injection site and the injection was performed for 10 minutes. […]
# Dorso-ventral rat brain slices were collected and analysed by fluorescence microscopy and results are shown in at 4× (FIG. 48A), 10× (FIG. 48C) and 20× (FIG. 48D) magnifications. […]
structure (smiles),measurement,setting,value
CC[C@H](C)[C@H](NC(=O)[C@H](CCCCN)NC(=O)[C@H](CCCCN)NC(=O)[C@H](Cc1ccccc1)NC(=O)[C@H](CC(C)C)NC(=O)[C@H](CCCCN)NC(=O)[C@H](Cc1c[nH]c2ccccc12)NC(=O)[C@H](CCCCN)NC(=O)[C@H](Cc1c[nH]cn1)NC(=O)[C@H](Cc1c[nH]cn1)NC(=O)[C@H](Cc1c[nH]cn1)NC(=O)[C@H](Cc1c[nH]cn1)NC(=O)[C@H](Cc1c[nH]cn1)NC(=O)[C@@H](N)Cc1c[nH]cn1)C(=O)NCC(=O)N[C@@H](C)C(=O)N[C@H](C(=O)N[C@@H](CC(C)C)C(=O)N[C@@H](CCCCN)C(=O)N[C@H](C(=O)N[C@@H](CC(C)C)C(=O)N[C@H](C(=O)N[C@H](C(=O)NCC(=O)N[C@@H](Cc1ccc(O)cc1)C(=O)N[C@@H](C)C(=O)N[C@@H](CCCNC(=N)N)C(=O)N[C@@H](C)C(=O)N[C@@H](C)C(=O)N[C@@H](C)C(=O)N[C@@H](CCCNC(=N)N)C(=O)N[C@@H](CCC(N)=O)C(=O)N[C@@H](C)C(=O)N[C@@H](CCCNC(=N)N)C(=O)N[C@@H](C)C(=O)O)[C@@H](C)O)[C@@H](C)O)C(C)C)C(C)C [His-CM18-PTD4],Mean % cells with GFP signal (±St. Dev.; n = 3),HeLa cells,0.04 ± 0.01%
same,target gene mRNA transcription after HOXB4-WT transduction (in words),THP-1 cells; 2.5 hours in the presence of serum,dose-dependent increase in mRNA transcription of the target gene
same,Total RNA in ng/μL (mean ± St. Dev),"THP-1 cells; Table 14.1, 2.5 hours, shuttle 1 μM, HOXB4-WT 0 μM (alone)",252 ± 10.7 ng/µL
same,Total RNA in ng/μL (mean ± St. Dev),"THP-1 cells; Table 14.2, shuttle 0.8 μM, HOXB4-WT 0 μM (alone), exposure 2.5 h",184 ± 6.0 ng/µL
same,Total RNA in ng/μL (mean ± St. Dev),"THP-1 cells; Table 14.3, shuttle 0 μM, HOXB4-WT 0.3 μM (alone), exposure 2.5 h",260 ± 7.1 ng/µL
same,Total RNA in ng/μL (mean ± St. Dev),"THP-1 cells; Table 14.4, shuttle 0 μM, HOXB4-WT 1.5 μM (alone), exposure 2.5 h",303.9 ± 7.6 ng/µL
same,in vivo delivery of GFP-NLS to cell nuclei,rat parietal cortex,delivery of the GFP-NLS in the nucleus of cells from the deeper layers of the parietal cortex (injection site) to the corpus callus and the dorsal level of the striatum (putamen)
